Results taken from US10945981B2, “Methods for treating familial adenomatous polyposis” (CANCER PREVENTION PHARMACEUTICALS, INC., priority 2019, dated 2021).

Assays:
[1] = tested on: patients with Familial Adenomatous Polyposis (FAP); assay: Randomized, double-blind phase III trial in FAP patients: safety (adverse events); details: for Treatment-related serious adverse events: 1 patient each
[2] = tested on: patients with Familial Adenomatous Polyposis (FAP); assay: Randomized, double-blind phase III trial in FAP patients: FAP-related events (efficacy); assay type: in vivo, human; details: for Mean time to first FRE: Kaplan-Meier estimated
From the text: Patients were stratified by anatomic site with highest polyp burden and surgical status: (a) post colectomy with rectal or ileal pouch polyposis (longest projected time to first FRE); (b) with duodenal polyposis (intermediate projected time to first FRE); and (c) pre-colectomy (shortest projected time to first FRE) prior to randomization to minimize treatment imbalance.
A stratified randomization procedure was used with stratification based on FAP-related time-to-first-event prognosis (see FIG. 1). The event prognosis groups were represented by 1) best (i.e., longest projected time to first FAP-related event)—rectal/pouch polyposis (Post-colectomy (≥3 years S/P IRA or IPAA with >10 polyps; any polyps >5 mm excised at baseline)), 2) intermediate—duodenal polyposis (Spigelman Stage 3 or 4 or Spigelman Stage 3 or 4 down-staged to Spigelman 1 or 2 within the past 6 months), and 3) worst—pre-colectomy. If a subject has two or more of these disease sites, the most severe prognosis stratum was assigned for randomization (e.g. worst>intermediate>best). Since an individual may have more than one disease site involved, the trial assessed time to any defined FAP-related event in the subject as a whole. In order to minimize potential treatment arm imbalance a centralized randomization process was used to balance among treatment groups within prognostic strata.
Lower GI Endoscopy: Patients were evaluated via colonoscopy, flexible or rigid procto-sigmoidoscopy during the screening phase. Biopsies, ablations, and snare excisions at baseline were performed per the clinician's standard of care. If considered eligible based on inclusion criteria, a grossly normal mucosa biopsy was obtained for baseline polyamine measurement. Still and video documentation of the colon (vide infra) or the residual rectum or entire pouch was also obtained for archiving. Polyp size was determined by visual comparison with biopsy forceps that can measure 5.0-5.5 mm in the fully open position. All randomized patients with an intact colon or rectum/pouch had baseline and on-study lower GI endoscopy procedures as part of this trial.
Upper GI Endoscopy: The duodenum was evaluated by forward-viewing and/or side-viewing gastroscopes (with still and video documentation with closed and open biopsy forceps near mucosa). All randomized patients with a duodenum had baseline and on-study UGI endoscopy as part of this trial. Subjects stratified to the duodenal group must have duodenal biopsies of all polyps 1 cm or larger to determine HGD and histology required for determining Stage 3 or 4 Spigelman status.
FAP-related primary events by disease site were as follows: • 1. Pre-operative, intact colon: Disease progression indicating need for colectomy with IRA or total procto-colectomy • 2. Retained rectum or pouch events include one or more of the following: • a) Excisional intervention by endoscopic snare or trans-anal excision to remove any polyp ≥10 mm in size (per pathology report) and/or pathologic evidence of high grade dysplasia. • b) Disease progression indicating need for proctectomy or pouch resection • 3. Duodenal disease includes the following: • a) Progression in Spigelman Stage to more advanced stage (Stage 2, 3 or 4) • b) Disease progression indicating need for excisional intervention (sub-mucosal resection, trans-duodenal excision, ampullectomy, duodenectomy, Whipple procedure) • c) Development of cancer
At six month intervals (+/−two weeks), subjects underwent repeat upper and lower endoscopy. […] Video recordings of all procedures and qualitative assessments were compared to the exam 6 months prior.

tumor putrescine levels = details: eflornithine infusion, rat-tumor model; cited from earlier work
prostoglandin E2 (PGE2) = details: 300 mg/day, one month; cited from earlier work
[3] = disease site colon, number of subjects
[4] = disease site duodenum, number of subjects
[5] = disease site rectum and pouch, number of subjects
[6] = post-colectomy, rectal/ileal pouch stratum

NCCCC(N)(C(=O)O)C(F)F (stereo not shown) [Eflornithine, 2,5-diamino-2-(difluoromethyl)pentanoic acid]
Discontinuations due to AEs, number of patients [1]: 5 patients
Discontinuations due to AEs, percent of patients [1]: 8.8%
TRAE reported by % of patients [1]: 55.4%
Treatment-related hearing adverse events: Hearing loss N [1]: 1
Treatment-related hearing adverse events: Tinnitus N [1]: 1
Treatment-related serious adverse events [1]: stroke
Treatment-related serious adverse events ([1]; listed as CPP-1X): Stroke
Death ([1]; safety population): 0 n (%)
Number of patients discontinuing due to a TRAE ([1]; safety population): 3 (5.4) n (%)
Number of patients reporting TEAEs ([1]; safety population): 49 (87.5) n (%)
Number of patients reporting TEAEs ≥ Grade 3 ([1]; safety population): 17 (30.4) n (%)
Number of patients reporting TRAE: Abdominal distension ([1]; safety population): 4 (7.1) n (%)
Number of patients reporting TRAE: Abdominal pain ([1]; safety population): 4 (7.1) n (%)
Number of patients reporting TRAE: Alopecia ([1]; safety population): 0 n (%)
Number of patients reporting TRAE: Decreased appetite ([1]; safety population): 3 (5.4) n (%)
Number of patients reporting TRAE: Depression ([1]; safety population): 1 (1.8) n (%)
Number of patients reporting TRAE: Diarrhea ([1]; safety population): 5 (8.9) n (%)
Number of patients reporting TRAE: Dizziness ([1]; safety population): 3 (5.4) n (%)
Number of patients reporting TRAE: Dyspepsia ([1]; safety population): 3 (5.4) n (%)
Number of patients reporting TRAE: Fatigue ([1]; safety population): 3 (5.4) n (%)
Number of patients reporting TRAE: Flatulence ([1]; safety population): 3 (5.4) n (%)
Number of patients reporting TRAE: Frequent bowel movements ([1]; safety population): 3 (5.4) n (%)
Number of patients reporting TRAE: Gastritis erosive ([1]; safety population): 0 n (%)
Number of patients reporting TRAE: Headache ([1]; safety population): 8 (14.3) n (%)
Number of patients reporting TRAE: Hematochezia ([1]; safety population): 4 (7.1) n (%)
Number of patients reporting TRAE: Nausea ([1]; safety population): 8 (14.3) n (%)
Number of patients reporting TRAE: Pruritus ([1]; safety population): 2 (3.6) n (%)
Number of patients reporting TRAE: Rash ([1]; safety population): 0 n (%)
Number of patients reporting TRAE: Rectal hemorrhage ([1]; safety population): 3 (5.4) n (%)
Number of patients reporting TRAE: Thrombocytopenia ([1]; safety population): 1 (1.8) n (%)
Number of patients reporting TRAE: Tinnitus ([1]; safety population): 1 (1.8) n (%)
Number of patients reporting TRAE: Upper abdominal pain ([1]; safety population): 2 (3.6) n (%)
Number of patients reporting TRAE: Vomiting ([1]; safety population): 5 (8.9) n (%)
Number of patients reporting TRAEs ([1]; safety population): 31 (55.4) n (%)
Number of patients reporting TRSAEs ([1]; safety population): 1 (1.8) n (%)
Kaplan-Meier estimated mean time to first FRE ([2]; ITT population): 21.8 months
Event-free rate ([2]; ITT population, cumulative): 59.6%
FREs occurred, percent of patients ([2]; ITT population, cumulative): 40.4%
Surgical FAP-related events, Colon: Event-free proportion ([2]; disease site colon): 76.9%
Surgical FAP-related events, Colon: Colectomy [2, 3]: 0
Surgical FAP-related events, Colon: Disease progression [2, 3]: 3
Surgical FAP-related events, Duodenum: Event-free proportion ([2]; disease site duodenum): 72.7%
Surgical FAP-related events, Duodenum: Disease progression [2, 4]: 3
Surgical FAP-related events, Duodenum: Excisional intervention [2, 4]: 3
Surgical FAP-related events, Duodenum: Spigelman stage progression [2, 4]: 12
Surgical FAP-related events, Rectum and Pouch: Event-free proportion ([2]; disease site rectum and pouch): 87.2%
Surgical FAP-related events, Rectum and Pouch: Disease progression [2, 5]: 5
Surgical FAP-related events, Rectum and Pouch: Proctectomy/pouch resection [2, 5]: 1
FRE type: Duodenal excision ([2]; duodenal polyposis stratum): 2
FRE type: Duodenal excision and Spigelman stage progression ([2]; duodenal polyposis stratum): 1
FRE type: Pouch resection ([2]; duodenal polyposis stratum): 2
FRE type: Spigelman stage progression ([2]; duodenal polyposis stratum): 7
FRE type: ≥10 mm polyp removed in rectum/pouch ([2]; duodenal polyposis stratum): 1
Patients with FRE, % ([2]; duodenal polyposis stratum): (39.4) %
Total FRE ([2]; duodenal polyposis stratum): 13
Mean time to first FRE ([2]; duodenal polyposis stratum): 21.7 months
Risk reduction versus combination ([2]; duodenal polyposis stratum, combination relative to the arm named): 24%
Patients with FRE, % ([2]; duodenal polyposis stratum, listed as eflornithine): 39.4%
Progression of lower gastrointestinal polyposis: surgeries ([2]; human, in vivo): 1
Patients with duodenal polyposis progression who underwent duodenal excisional procedures ([2]; number of patients): 3
FRE type: Pouch resection [2, 6]: 2
FRE type: Proctocolectomy [2, 6]: 1
FRE type: Spigelman stage progression [2, 6]: 1
FRE type: ≥10 mm polyp removed in rectum/pouch [2, 6]: 1
Patients with FRE, % [2, 6]: (41.7) %
Total FRE [2, 6]: 5
Mean time to first FRE [2, 6]: 15.7 months
Risk reduction versus combination ([2]; post-colectomy, rectal/ileal pouch stratum, combination relative to the arm named): None
Patients with FRE, % ([2]; post-colectomy, rectal/ileal pouch stratum, listed as eflornithine): 41.7%
FRE type: Colectomy ([2]; pre-colectomy stratum): 2
FRE type: Colectomy and Spigelman stage progression ([2]; pre-colectomy stratum): 1
FRE type: Spigelman stage progression ([2]; pre-colectomy stratum): 2
Patients with FRE, % ([2]; pre-colectomy stratum): (41.7) %
Total FRE ([2]; pre-colectomy stratum): 5
Mean time to first FRE ([2]; pre-colectomy stratum): 19.7 months
Patients with FRE, % ([2]; pre-colectomy stratum, listed as eflornithine): 41.7%
Risk reduction versus combination ([2]; pre-colectomy stratum, risk reduction for FRE of the combination relative to the arm named): 80%
Event Rate of FAP-related Surgery Events in Lower GI ([2]; subjects with lower GI anatomy): 8/57 (14%)
Lower GI surgery events: Need colectomy ([2]; subjects with lower GI anatomy): 3
Lower GI surgery events: Need pouch resection ([2]; subjects with lower GI anatomy): 4
Lower GI surgery events: Need proctectomy ([2]; subjects with lower GI anatomy): 1
Lower GI surgery events: Total Surgical Events ([2]; subjects with lower GI anatomy): 8
Progression of lower gastrointestinal polyposis: polypectomies ([2]; ≥10 mm in size and/or high grade dysplasia): 2
Decrease in tumor putrescine levels (tumor putrescine levels): 90%

CC(C)Cc1ccc(C(C)C(=O)O)cc1 (stereo not shown) [ibuprofen]
PGE2 levels in flat mucosa (prostoglandin E2 (PGE2)): significant decrease
